Measured values: publication PMC12264943, “Identification of New Human P2X7 Antagonists Using Ligand- and Structure-Based Virtual Screening” (Journal of Chemical Information and Modeling, 2025)

Assays:
Type in all cases: cell-based
hP2X7 [1] = target: T1, hP2X7 (Homo sapiens, UniProt Q99572); assay: YO-PRO 1 dye uptake assay, HEK-293 cells stably transfected with hP2X7
T1 construct: expressed in transfected cells; host or cells: HEK-293, stably transfected (gift of E. Adinolfi's group, Ferrara University)
T1 sequence (Q99572 1-595): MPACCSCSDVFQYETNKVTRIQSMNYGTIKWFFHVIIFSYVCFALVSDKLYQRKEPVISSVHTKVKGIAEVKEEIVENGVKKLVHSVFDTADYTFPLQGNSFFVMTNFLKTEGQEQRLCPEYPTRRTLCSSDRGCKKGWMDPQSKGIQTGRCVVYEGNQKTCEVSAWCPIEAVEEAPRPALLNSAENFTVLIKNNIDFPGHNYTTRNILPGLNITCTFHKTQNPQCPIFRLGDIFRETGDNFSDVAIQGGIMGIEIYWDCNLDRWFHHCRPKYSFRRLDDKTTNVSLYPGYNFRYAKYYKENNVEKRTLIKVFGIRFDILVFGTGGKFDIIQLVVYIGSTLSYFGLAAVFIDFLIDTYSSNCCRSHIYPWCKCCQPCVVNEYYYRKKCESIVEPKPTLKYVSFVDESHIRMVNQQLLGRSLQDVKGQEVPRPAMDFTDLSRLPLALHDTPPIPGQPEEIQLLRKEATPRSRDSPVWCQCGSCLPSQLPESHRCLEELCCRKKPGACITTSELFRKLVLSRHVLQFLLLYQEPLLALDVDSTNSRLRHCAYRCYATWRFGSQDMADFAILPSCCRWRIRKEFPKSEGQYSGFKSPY
Description: (§1) Astrocytoma 1321 N1 (established by Dr. Gaia Pasqualetto) and HEK-293 (kindly gifted by E. Adinolfi’s group, Ferrara University) both stably transfected with hP2X7, were used to assess the activity of the small molecules selected from the VS. Cells were maintained in DMEM:F12 (PanBiotech) supplemented with 10% FBS, 1% pen-strep, and 150 μg/mL G418 (PanBiotech).
Astrocytoma 1321 N1 cells (2–2.5 × 10^4 cells/well) and HEK-293 cells (4–5 × 10^4 cells/well) expressing hP2X7 were seeded in poly-L-lysine-coated 96-well plates (Sarstedt) 24 h before the experiment. YO-PRO 1 dye was prepared at 5 μM in extracellular solution with low divalent cations (ECS-LD) buffer (147 mM NaCl, 10 mM HEPES, 13 mM glucose, 0.2 mM CaCl2, 2 mM KCl, pH 7.4) and added to cells after washing them with Dulbecco’s phosphate- buffered saline (DPBS) (PanBiotech) and incubated for 20 min at 37 °C. ATP-induced dye uptake, mediated by hP2X7 activation, was monitored using a Clariostar plate reader (excitation: 485 nm; emission: 538 nm) for 30 cycles (75–150 s/cycle), after recording the baseline for five cycles. hP2X7 activation was quantified at cycle 10 by calculating the fluorescence intensity (FI) ratio (Δ(Fcycle 10–F cycle 1)/cycle time).
Compounds 2 and 9, identified as hits, were further evaluated for concentration-dependent inhibition (IC50) of hP2X7 activation in the YO-PRO 1 dye uptake assay using HEK-293 cells stably transfected with hP2X7 (unfortunately, at this point in the study, the stably transfected 1321N1 cells lost P2X7 expression, and we were unable to recover them from frozen aliquots), for which the ATP EC50 was determined to be approximately 1 mM (Supporting material Figure 4C). Seven concentrations (100 to 0.03 μM) were tested, but due to precipitation at 100 μM, the DMSO concentration was increased to 1%.
3 Inhibitory concentration response evaluation of compounds 2 and 9 and their groups highlighted for SAR. […] Compound activity was evaluated along a time of 20 min (75 s per cycle) after ATP addition (700 μM). The fluorescence intensity (FI) values of the first 10 cycles were considered for assessing their ability to inhibit hP2X7. The curves represent three biological replicates (n = 4 per replicate). Data were normalized by setting as 100% the FI recorded by hP2X7 HEK-293 cells incubated in 1% DMSO and stimulated by ATP, and as 0% the FI recorded by the same cells but treated with ECS-LD (assay buffer). (C) Highlighted areas of compound 2 considered for SAR study. R1 refers to the ethyl-benzyl group of the molecules, and R2 and R3 refer to the benzo-(1,3)-dioxol groups. (D) Highlighted areas of compound 9 considered for SAR study. We have defined the area highlighted in yellow and numbered as 1 as the “front” region of the molecule and the one colored in pink and named as 2 as the “back” region of the molecule. L highlights the urea and amide linkers of compounds 2 and 9, respectively.
(§2) 4 Evaluation of compound 2 and 9 analogue activity using YO-PRO 1 and MPR assays. The activity of compound 2 (A and B) and 9 (C and D) analogues was evaluated in YO-PRO 1 (A and C) and MPR (B and D) assays. The compounds were tested at 10 μM and preincubated for either 20 (YO-PRO 1) or 30 min (MPR). The baseline was recorded for 5 cycles before ATP treatment (1 mM). Fluorescence was recorded for 25 (YO-PRO 1) or 5 min (MPR). The data were normalized by setting as 100% for the fluorescence measured from hP2X7 HEK-293 cells incubated with vehicle (0.1% DMSO) and treated with 1 mM ATP and 0% for the fluorescence recorded by the cells not treated with ATP. The data shown correspond to three independent biological replicates (3 technical replicates per experiment; error bars represent the SEM from the mean values of each biological replicate (n = 3)). The statistical analysis was performed with one-way Anova using Dunnett’s function (P**** < 0.0001; P*** < 0.0003; P** < 0.002; P* < 0.02).

hP2X7 [2] = target: T1, hP2X7; assay: Membrane Potential Red (MPR) dye assay, HEK-293 cells stably transfected with hP2X7; details: HEK293, 1 mM ATP, hP2X7 HEK-293
Description: as §1
Cells were plated as described for the YO-PRO 1 dye uptake assay. MPR dye (Molecular Devices) was prepared following the manufacturer’s protocol and diluted 1:10 in ECS-LD buffer. After washing with DPBS, cells were incubated with the dye for 30 min at 37 °C. Fluorescence changes (excitation: 525 nm; emission: 560 nm) were recorded using a Clariostar plate reader during ATP-induced membrane depolarization. Baseline fluorescence was recorded for 5 cycles, and ATP was added via an automated injector (10 μL). Membrane depolarization was quantified as the ratio of the maximal fluorescence change over baseline intensity (Δ(F max–F0)/F0)).
as §2

HEK-293 WT cells = assay: Cytotoxicity assay (CellTiter Blue); details: 10 μM, 24 h, nontransfected HEK-293 cells
Description: HEK-293 WT cells were seeded at 4 × 10^4 cells/well in 96-well plates precoated with poly-L-lysine. After 24 h, the cells were washed with DPBS and treated with test compounds (10 μM) in 2% FBS-containing medium for 24 h. After this, the medium containing the test compounds was replaced with 20% CellTiter-Blue reagent (Promega) in 2% FBS medium. After a 2-h incubation, fluorescence (excitation: […]; emission: […]) was measured using a Clariostar plate reader. Data were normalized to untreated control cells (100%) and wells without cells (0%).
5 Concentration inhibition curve determination for compound 2g (A) and evaluation of cytotoxicity for compounds 2, 9, and 2g. […] The data on the graph represent the mean from three independent experiments (n = 3 replicates per experiment). (B) The cytotoxicity of the compounds was evaluated on nontransfected HEK-293 cells using a CellTiter Blue assay. The cells were incubated for 24 h with the compounds at 10 μM. The fluorescent signal obtained from vehicle-treated cells (0.1% DMSO) was used to normalize the data to 100%, and the one obtained from wells not containing cells (BLANK) was set as 0%. The data are the combination of three biological replicates (error bars represent the SEM (n = 3)) analyzed by one-way ANOVA using Dunnet’s function (P**** < 0.0001; **< 0.002; * < 0.02; ns, non significant).
The potential cytotoxicity of the hit compounds identified, 2, 9, and 2g, was assessed at 10 μM by CellTiter Blue assay using nontransfected HEK-293 cells (Figure B).

IC50 (hP2X7 [1]; YO-PRO 1 dye uptake, hP2X7 HEK-293 cells, 100 to 0.03 μM, 1% DMSO, read-out: IC50, inhibition of hP2X7 activation): 1310 nM
reduction of hP2X7 activity (hP2X7 [1]; analogues at 10 μM, YO-PRO 1, 1 mM ATP, 0.1% DMSO): 80%
inhibition at 10 µM (hP2X7 [2]): 70%
Compound: O=C(Nc1ccc2c(c1)OCO2)NC(Cc1ccc(F)cc1)Cc1ccc(F)cc1 [Compound 2g]
hP2X7 inhibition in YO-PRO 1 dye uptake, SAR (hP2X7 [1]; analogues at 10 μM, 1 mM ATP): retained potency comparable to that of the hit compound
reduction in cell viability (HEK-293 WT cells): ~10%
